Source: article PMC7156458, “Synthetic biology based construction of biological activity-related library of fungal decalin-containing diterpenoid pyrones” (Nature Communications, 2020)

Target: Aβ42 (Homo sapiens, UniProt P05067)
Assay: Th-T (thioflavin-T) assay of Aβ42 aggregation
Type: biochemical
Conditions: for Th-T fluorescence of Aβ42 (sheet Fig. 7a), mean of three wells: head suffix _50 (concentration 50); for Th-T assay plate reading, mean of three wells (Supplementary Fig. 47): source data, Ab alone and No Ab as controls; for Th-T fluorescence, mean of three wells: Supplementary Fig. 47 source data

Aβ42, sequence (P05067 672-713): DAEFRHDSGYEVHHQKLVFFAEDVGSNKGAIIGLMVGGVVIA

C=C1CCC2C(C)(CCC=C(C)C)C(O)CCC2(C)C1Cc1c(OC)oc(CO)c(C)c1=O (stereo not drawn) [Compound 12]
Th-T fluorescence of Aβ42 (sheet Fig. 7a), mean of three wells (reading M73): 1.414 | Th-T fluorescence of Aβ42 (sheet Fig. 7a), mean of three wells (reading M74): 1.457 | Th-T fluorescence of Aβ42 (sheet Fig. 7a), mean of three wells (reading M75): 1.421 | Th-T fluorescence of Aβ42 (sheet Fig. 7a), mean of three wells (reading M76): 1.415 | Th-T fluorescence of Aβ42 (sheet Fig. 7a), mean of three wells (reading M77): 1.436 | Th-T fluorescence of Aβ42 (sheet Fig. 7a), mean of three wells (reading M78): 1.437 | Th-T fluorescence of Aβ42 (sheet Fig. 7a), mean of three wells (reading M79): 1.425 | Th-T fluorescence of Aβ42 (sheet Fig. 7a), mean of three wells (reading M80): 1.423 | Th-T fluorescence of Aβ42 (sheet Fig. 7a), mean of three wells (reading M81): 1.42 | Th-T fluorescence of Aβ42 (sheet Fig. 7a), mean of three wells (reading M82): 1.419 | Th-T fluorescence of Aβ42 (sheet Fig. 7a), mean of three wells (reading M83): 1.439 | Th-T fluorescence of Aβ42 (sheet Fig. 7a), mean of three wells (reading M84): 1.415 | Th-T assay plate reading, mean of three wells (Supplementary Fig. 47) (measurement M1): 0.2937 | Th-T assay plate reading, mean of three wells (Supplementary Fig. 47) (measurement M2): 0.2498 | Th-T assay plate reading, mean of three wells (Supplementary Fig. 47) (measurement M3): 0.2612 | Th-T assay plate reading, mean of three wells (Supplementary Fig. 47) (measurement M4): 0.2666 | Th-T assay plate reading, mean of three wells (Supplementary Fig. 47) (measurement M5): 0.2891 | Th-T assay plate reading, mean of three wells (Supplementary Fig. 47) (measurement M6): 0.324 | Th-T assay plate reading, mean of three wells (Supplementary Fig. 47) (measurement M7): 0.6238 | Th-T assay plate reading, mean of three wells (Supplementary Fig. 47) (measurement M8): 1.342 | Th-T assay plate reading, mean of three wells (Supplementary Fig. 47) (measurement M9): 1.95 | Th-T assay plate reading, mean of three wells (Supplementary Fig. 47) (measurement M10): 2.214 | Th-T assay plate reading, mean of three wells (Supplementary Fig. 47) (measurement M11): 2.313 | Th-T assay plate reading, mean of three wells (Supplementary Fig. 47) (measurement M12): 2.311 | Th-T assay plate reading, mean of three wells (Supplementary Fig. 47) (measurement M13): 2.302 | Th-T assay plate reading, mean of three wells (Supplementary Fig. 47) (measurement M14): 2.328 | Th-T assay plate reading, mean of three wells (Supplementary Fig. 47) (measurement M15): 2.358 | Th-T assay plate reading, mean of three wells (Supplementary Fig. 47) (measurement M16): 2.3929 | Th-T fluorescence, mean of three wells (Fig. 7a) (reading M107, compound at 10 (head suffix _10)): 2.747 | Th-T fluorescence, mean of three wells (Fig. 7a) (reading M107, compound at 20 (head suffix _20)): 2.1149 | Th-T fluorescence, mean of three wells (Fig. 7a) (reading M107, compound at 50 (head suffix _50)): 1.42 | Th-T fluorescence, mean of three wells (Fig. 7a) (reading M108, compound at 10 (head suffix _10)): 2.748 | Th-T fluorescence, mean of three wells (Fig. 7a) (reading M108, compound at 20 (head suffix _20)): 2.099 | Th-T fluorescence, mean of three wells (Fig. 7a) (reading M108, compound at 50 (head suffix _50)): 1.438 | Th-T fluorescence, mean of three wells (Fig. 7a) (reading M109, compound at 10 (head suffix _10)): 2.719 | Th-T fluorescence, mean of three wells (Fig. 7a) (reading M109, compound at 20 (head suffix _20)): 2.112 | Th-T fluorescence, mean of three wells (Fig. 7a) (reading M109, compound at 50 (head suffix _50)): 1.43 | Th-T fluorescence, mean of three wells (Fig. 7a) (reading M110, compound at 10 (head suffix _10)): 2.701 | Th-T fluorescence, mean of three wells (Fig. 7a) (reading M110, compound at 20 (head suffix _20)): 2.0943 | Th-T fluorescence, mean of three wells (Fig. 7a) (reading M110, compound at 50 (head suffix _50)): 1.437 | Th-T fluorescence, mean of three wells (Fig. 7a) (reading M111, compound at 10 (head suffix _10)): 2.678 | Th-T fluorescence, mean of three wells (Fig. 7a) (reading M111, compound at 20 (head suffix _20)): 2.0886 | Th-T fluorescence, mean of three wells (Fig. 7a) (reading M111, compound at 50 (head suffix _50)): 1.44 | Th-T fluorescence, mean of three wells (Fig. 7a) (reading M112, compound at 10 (head suffix _10)): 2.674 | Th-T fluorescence, mean of three wells (Fig. 7a) (reading M112, compound at 20 (head suffix _20)): 2.104 | Th-T fluorescence, mean of three wells (Fig. 7a) (reading M112, compound at 50 (head suffix _50)): 1.449 | Th-T fluorescence, mean of three wells (Fig. 7a) (reading M113, compound at 10 (head suffix _10)): 2.652 | Th-T fluorescence, mean of three wells (Fig. 7a) (reading M113, compound at 20 (head suffix _20)): 2.1068 | Th-T fluorescence, mean of three wells (Fig. 7a) (reading M113, compound at 50 (head suffix _50)): 1.457 | Th-T fluorescence, mean of three wells (Fig. 7a) (reading M114, compound at 10 (head suffix _10)): 2.644 | Th-T fluorescence, mean of three wells (Fig. 7a) (reading M114, compound at 20 (head suffix _20)): 2.09 | Th-T fluorescence, mean of three wells (Fig. 7a) (reading M114, compound at 50 (head suffix _50)): 1.449 | Th-T fluorescence, mean of three wells (Fig. 7a) (reading M115, compound at 10 (head suffix _10)): 2.617 | Th-T fluorescence, mean of three wells (Fig. 7a) (reading M115, compound at 20 (head suffix _20)): 2.12 | Th-T fluorescence, mean of three wells (Fig. 7a) (reading M115, compound at 50 (head suffix _50)): 1.466 | Th-T fluorescence, mean of three wells (Fig. 7a) (reading M116, compound at 10 (head suffix _10)): 2.617 | Th-T fluorescence, mean of three wells (Fig. 7a) (reading M116, compound at 20 (head suffix _20)): 2.1099 | Th-T fluorescence, mean of three wells (Fig. 7a) (reading M116, compound at 50 (head suffix _50)): 1.496 | Th-T fluorescence, mean of three wells (Fig. 7a) (reading M117, compound at 10 (head suffix _10)): 2.5929 | Th-T fluorescence, mean of three wells (Fig. 7a) (reading M117, compound at 20 (head suffix _20)): 2.13 | Th-T fluorescence, mean of three wells (Fig. 7a) (reading M117, compound at 50 (head suffix _50)): 1.473 | Th-T fluorescence, mean of three wells (Fig. 7a) (reading M118, compound at 10 (head suffix _10)): 2.576 | Th-T fluorescence, mean of three wells (Fig. 7a) (reading M118, compound at 20 (head suffix _20)): 2.113 | Th-T fluorescence, mean of three wells (Fig. 7a) (reading M118, compound at 50 (head suffix _50)): 1.488 | Th-T fluorescence, mean of three wells (Fig. 7a) (reading M119, compound at 10 (head suffix _10)): 2.572 | Th-T fluorescence, mean of three wells (Fig. 7a) (reading M119, compound at 20 (head suffix _20)): 2.161 | Th-T fluorescence, mean of three wells (Fig. 7a) (reading M119, compound at 50 (head suffix _50)): 1.496 | Th-T fluorescence, mean of three wells (Fig. 7a) (reading M120, compound at 10 (head suffix _10)): 2.541 | Th-T fluorescence, mean of three wells (Fig. 7a) (reading M120, compound at 20 (head suffix _20)): 2.1524 | Th-T fluorescence, mean of three wells (Fig. 7a) (reading M120, compound at 50 (head suffix _50)): 1.517 | Th-T fluorescence, mean of three wells (Fig. 7a) (reading M121, compound at 10 (head suffix _10)): 2.53 | Th-T fluorescence, mean of three wells (Fig. 7a) (reading M121, compound at 20 (head suffix _20)): 2.137 | Th-T fluorescence, mean of three wells (Fig. 7a) (reading M121, compound at 50 (head suffix _50)): 1.531 | Th-T fluorescence, mean of three wells (Fig. 7a) (reading M122, compound at 10 (head suffix _10)): 2.517 | Th-T fluorescence, mean of three wells (Fig. 7a) (reading M122, compound at 20 (head suffix _20)): 2.124 | Th-T fluorescence, mean of three wells (Fig. 7a) (reading M122, compound at 50 (head suffix _50)): 1.501 | Th-T fluorescence, mean of three wells (Fig. 7a) (reading M123, compound at 10 (head suffix _10)): 2.493 | Th-T fluorescence, mean of three wells (Fig. 7a) (reading M123, compound at 20 (head suffix _20)): 2.112 | Th-T fluorescence, mean of three wells (Fig. 7a) (reading M123, compound at 50 (head suffix _50)): 1.514 | Th-T fluorescence, mean of three wells (Fig. 7a) (reading M124, compound at 10 (head suffix _10)): 2.48 | Th-T fluorescence, mean of three wells (Fig. 7a) (reading M124, compound at 20 (head suffix _20)): 2.17 | Th-T fluorescence, mean of three wells (Fig. 7a) (reading M124, compound at 50 (head suffix _50)): 1.559 | Th-T fluorescence, mean of three wells (Fig. 7a) (reading M125, compound at 10 (head suffix _10)): 2.466 | Th-T fluorescence, mean of three wells (Fig. 7a) (reading M125, compound at 20 (head suffix _20)): 2.169 | Th-T fluorescence, mean of three wells (Fig. 7a) (reading M125, compound at 50 (head suffix _50)): 1.553 | Th-T fluorescence, mean of three wells (Fig. 7a) (reading M126, compound at 10 (head suffix _10)): 2.458 | Th-T fluorescence, mean of three wells (Fig. 7a) (reading M126, compound at 20 (head suffix _20)): 2.184 | Th-T fluorescence, mean of three wells (Fig. 7a) (reading M126, compound at 50 (head suffix _50)): 1.559 | Th-T fluorescence, mean of three wells (Fig. 7a) (reading M127, compound at 10 (head suffix _10)): 2.439 | Th-T fluorescence, mean of three wells (Fig. 7a) (reading M127, compound at 20 (head suffix _20)): 2.22 | Th-T fluorescence, mean of three wells (Fig. 7a) (reading M127, compound at 50 (head suffix _50)): 1.57 | Th-T fluorescence, mean of three wells (Fig. 7a) (reading M128, compound at 10 (head suffix _10)): 2.428 | Th-T fluorescence, mean of three wells (Fig. 7a) (reading M128, compound at 20 (head suffix _20)): 2.151 | Th-T fluorescence, mean of three wells (Fig. 7a) (reading M128, compound at 50 (head suffix _50)): 1.57 | Th-T fluorescence, mean of three wells (time-course reading M97): 2.083 | Th-T fluorescence, mean of three wells (time-course reading M98): 2.088 | Th-T fluorescence, mean of three wells (time-course reading M99): 2.073 | Th-T fluorescence, mean of three wells (time-course reading M100): 2.078 | Th-T fluorescence, mean of three wells (time-course reading M101): 2.074 | Th-T fluorescence, mean of three wells (time-course reading M102): 2.082 | Th-T fluorescence, mean of three wells (time-course reading M103): 2.066 | Th-T fluorescence, mean of three wells (time-course reading M104): 2.071 | Th-T fluorescence, mean of three wells (time-course reading M105): 2.058 | Th-T fluorescence, mean of three wells (time-course reading M106): 2.067 | Th-T fluorescence, mean of three wells (time-course reading M107): 2.067 | Th-T fluorescence, mean of three wells (time-course reading M108): 2.064 | Th-T fluorescence, mean of three wells (time-course reading M109): 2.047 | Th-T fluorescence, mean of three wells (time-course reading M110): 2.071 | Th-T fluorescence, mean of three wells (time-course reading M111): 2.087 | Th-T fluorescence, mean of three wells (time-course reading M112): 2.064 | Th-T fluorescence, mean of three wells (time-course reading M113): 2.068 | Th-T fluorescence, mean of three wells (time-course reading M114): 2.053 | Th-T fluorescence, mean of three wells (time-course reading M115): 2.069 | Th-T fluorescence, mean of three wells (time-course reading M116): 2.057
